# From patent publication US20140066394A1, “Substituted 6-(Benzylamino) Purine Riboside Derivatives, Use Thereof and Compositions Containing These Derivatives” (Biopatterns, S.R.O, priority 2009, published 2014)
# Assays:
# [1] = tested on: human myeloid leukemia K-562; assay: In vitro cytotoxicity, Calcein AM assay, K-562; assay type: cell-based; conditions: 72 hours
# Excerpt: (§1) Low cytotoxicity of the compounds is the major property determining the cosmetic use. One of the parameters used, as the basis for cytotoxicity assays, is the metabolic activity of viable cells. For example, a microtiter assay, which uses the Calcein AM, is now widely used to quantitate cell proliferation and cytotoxicity. For instance, this assay is used in drug screening programs and in chemosensitivity testing. Because only metabolically active cells cleave Calcein AM, these assays detect viable cells exclusively. The quantity of […] Calcein AM corresponds to the number of vital cells in the culture.
# (§2) Human T-lymphoblastic leukemia cell line CEM; promyelocytic HL-60 and monocytic U937 leukemias; breast carcinoma cell lines MCF-7, BT549, MDA-MB-231; glioblastoma U87MG cells; cervical carcinoma cells HELA; sarcoma cells U2OS and Saos2; hepatocellular carcinoma HepG2; mouse fibroblasts NIH3T3; mouse immortalized bone marrow macrophages B2.4 and B10A.4; P388D1 and L1210 leukemia; B16 and B16F10 melanomas; human osteosarcoma HOS; human myeloid leukemia K-562; human skin melanoma G-361 were used for routine screening of compounds. The cells were maintained in Nunc/Corning 80 cm^2 plastic tissue culture flasks and cultured in cell culture medium (DMEM with 5 g/l glucose, 2 mM glutamine, 100 U/mL penicillin, 100 μg/mL streptomycin, 10% fetal calf serum and sodium bicarbonate).
# (§3) The cell suspensions that were prepared and diluted according to the particular cell type and the expected target cell density (2.500-30.000 cells per well based on cell growth characteristics) were added by pipette ([…]) into 96/well microtiter plates. Inoculates were allowed a pre-incubation period of 24 hours at 37° C. and 5% CO2 for stabilisation. Four-fold dilutions of the intended test concentration were added at time zero in 20 μl aliquots to the microtiter plate wells. Usually, the compound tested was evaluated at six 4-fold dilutions. In routine testing, the highest well concentration was 100 μM, but it can be the matter of change dependent on the agent. All drug concentrations were examined in duplicates. Incubations of cells with the tested compounds lasted for 72 hours at 37° C., in 5% CO2 atmosphere and 100% humidity. At the end of the incubation period, the cells were assayed by using Calcein AM. Ten microliters of the stock solution were pipetted into each well and incubated for 1 hour. Fluorescence (FD) was measured with the Labsystem FIA Reader Fluoroscan Ascent (UK). The tumour cell survival (GI50) was calculated using the following equitation: TCS=(FDdrug exposed well/mean FDeontrol wells)×100%. The GI50 value, the drug concentration lethal to 50% of the tumour cells, was calculated from the obtained dose response curves.
# (§4) Zero cytotoxicity of the novel compounds is the basic prerequisite for agricultural and tumor-unrelated applications. The cytoxicity of the novel compounds was tested on a panel of cell lines of different histogenetic and species origin (Table 9). We show herein that equal activities were found in all tumour cell lines tested, however, the non-malignant cells, e.g. NIH3T3 fibroblasts and normal human lymphocytes, were resistant to 2,6-disubstituted purine ribosides induced cytotoxicity. The compounds listed in Tab. 9 can be divided into 2 groups. The first group contains “classical cytokinins” represented by 6-substituted purine ribosides (which are known in the prior art). The second group contains the novel 2,6-disubstituted derivatives of these compounds. […] GI50 for NIH3T3 fibroblasts and normal human lymphocytes was always higher than 100 μM. The novel derivatives show no toxicity to normal and tumour cells in concentrations about 100 μM and thus are more suitable for agricultural applications than “classical cytokinins” (6-substituted purine riboside derivatives).
# [2] = tested on: breast carcinoma cell line MCF-7; assay: In vitro cytotoxicity, Calcein AM assay, MCF7; assay type: cell-based, human; conditions: 72 hours
# Excerpt: as §1, §2, §3, §4
# [3] = tested on: human skin melanoma G-361; assay: In vitro cytotoxicity, Calcein AM assay, G-361; assay type: cell-based; conditions: 72 hours
# Excerpt: as §1, §2, §3, §4
# human osteosarcoma HOS = assay: In vitro cytotoxicity, Calcein AM assay, HOS; assay type: cell-based; conditions: 72 hours
# Excerpt: as §1, §2, §3, §4
# [4] = tested on: Human T-lymphoblastic leukemia cell line CEM; assay: In vitro cytotoxicity, Calcein AM assay, CEM; assay type: cell-based; conditions: 72 hours
# Excerpt: as §1, §2, §3, §4
# [5] = tested on: promyelocytic HL-60 leukemia; assay: In vitro cytotoxicity, Calcein AM assay, HL60; assay type: cell-based, human; conditions: 72 hours
# Excerpt: as §1, §2, §3, §4
# [6] = tested on: cytokinin-dependent tobacco callus Nicotiana tabacum L. cv. Wisconsin 38; assay: Tobacco callus bioassay (stimulation of plant cell division); assay type: cell-based; conditions: for concentration with highest activity: increase of fresh callus weight after four weeks, tested 10^−8 M to 10^−4 M; for activity (%) [10^−5 mol · l^−1 C = 100%]: relative activity at the concentration with highest activity, kinetin riboside at 10^−5 mol/l = 100%
# Description: Cytokinin-dependent tobacco callus Nicotiana tabacum L. cv. Wisconsin 38 was maintained at 25° C. in darkness on modified MS medium, containing per 1 liter: 4 μmol of nicotinic acid, 2.4 μmol of pyridoxine hydrochloride, 1.2 μmol of thiamine, 26.6 μmol of glycine, 1.37 μmol of glutamine, 1.8 μmol of myo-inositol, 30 g of sucrose, 8 g of agar, 5.37 μmol of NAA and 0.5 μmol of the compound tested. Subcultivation was carried out every three weeks. Fourteen days before the bioassay, the callus tissue was transferred to the media without the compound tested. The biological activity was determined from the increase of the fresh callus weight after four weeks of cultivation. Five replicates were prepared for each concentration of the compound tested and the entire test was repeated twice. From the obtained data, the concentration with the highest activity was selected for each compound tested. Relative activity of the compound at this concentration was calculated (Table 8). The compounds to be tested were dissolved in dimethylsulfoxide (DMSO) and the solution brought up to 10^−3M with distilled water. […] The compounds listed in Table 8 are compared to a “classical cytokinin” kinetin riboside (compound known in the prior art—C=control).
# β-adrenergic receptors = assay: Isoproterenol-induced cAMP synthesis in rat C6 glioma (anti-inflammatory activity); assay type: cell-based; conditions: for Effect (modulation of isoproterenol-induced cAMP synthesis): added simultaneously with (−)-isoproterenol
# Description: Anti-inflammatory activity of several of the 2-substituted 6-benzylaminopurine riboside derivatives of this invention was determined; kinetin riboside was also evaluated as a control. Rat C6 glioma (ATCC No. CCL107) was cultivated in monolayer in serum-free chemically defined medium containing Ham's F10/minimal essential medium (1:1 v/v), 2 mM L-glutamine, 1% (v/v) minimal essential medium vitamins (100×), 1% (v/v) minimal essential medium nonessential amino acids (100×), 100 U/mL penicillin, […], and 30 nM sodium selenite. Incubation was performed at 37° C. in a humidified atmosphere. The assays were performed in the logaritmic growth phase at a density of 2.5×10^5 cells/cm^2.
# Intracellular cAMP synthesis was induced by addition of 5 mM (−)-isoproterenol; various amounts of test compounds were added at the same time as the (−)-isoproterenol. After […] incubation at 37° C., the medium was removed and the cellular amount of cAMP was determined using the cAMP-enzyme immunoassay kit from Amersham. The I50 value was determined from a dose-response curve in duplicate. The effect of nine purine analogues was measured after simultaneous addition with isoproterenol.
# As P2Y1-like and A2 purinergic receptors, negatively and positively coupled to adenylate cyclase respectively, are present on rat C6 glioma as to be determined if the modulation of the synthesis of cAMP is due to inhibition of the activation of β-adrenergic receptors by isoproterenol are due to activation of purinergic receptors.
Effect (modulation of isoproterenol-induced cAMP synthesis) (β-adrenergic receptors; listed as control),"IC50 (β-adrenergic receptors; cellular cAMP by enzyme immunoassay, dose-response curve in duplicate, read-out: I50)",SMILES,GI50 [1],GI50 [2],GI50 [3],GI50 (human osteosarcoma HOS),GI50 [4],GI50 [5],concentration with highest activity [6],activity (%) [10^−5 mol · l^−1 C = 100%] [6],Effect (modulation of isoproterenol-induced cAMP synthesis) (β-adrenergic receptors)
,,"COc1ccc(CNc2ncnc3c2ncn3[C@@H]2O[C@H](CO)[C@@H](O)[C@H]2O)c(O)c1 [2-hydroxy-4-methoxybenzylamino, reference compound]",28 µM,20 µM,> 100 µM,> 100 µM,0.3 µM,0.15 µM,,,
,,"OC[C@H]1O[C@@H](n2cnc3c(NCc4cc(F)ccc4O)ncnc32)[C@H](O)[C@@H]1O [2-hydroxy-5-fluorobenzylamino, reference compound]",> 100 µM,> 100 µM,> 100 µM,> 100 µM,52 µM,24 µM,,,
none,,"OC[C@H]1O[C@@H](n2cnc3c(NCc4ccco4)ncnc32)[C@H](O)[C@@H]1O [C, kinetin riboside, reference compound]",,,,,,,10^−5 mol · l^−1,100%,inactive
,,OCC1OC(n2cnc3c(NCc4c(F)ccc(F)c4F)nc(Cl)nc32)C(O)C1O (centres unmarked) [Compound 33],,,,,,,10^−6 mol · l^−1,105.1 (±2) %,
,,OCC1OC(n2cnc3c(NCc4ccc(F)cc4F)nc(Cl)nc32)C(O)C1O (centres unmarked) [Compound 32],,,,,,,10^−6 mol · l^−1,109.7 (±12) %,
,,COc1c(O)cccc1CNc1nc(Cl)nc2c1ncn2C1OC(CO)C(O)C1O (centres unmarked) [Compound 21],> 100 µM,> 100 µM,> 100 µM,> 100 µM,> 100 µM,> 100 µM,,,
,10.8 ± 3 µM,OCC1OC(n2cnc3c(NCc4cc(Cl)ccc4O)nc(F)nc32)C(O)C1O (centres unmarked) [Compound 49],,,,,,,10^−6 mol · l^−1,112 (±8) %,inhibition
,,"Cc1ccc(O)c(CNc2ncnc3c2ncn3C2OC(CO)C(O)C2O)c1 (centres unmarked) [2-hydroxy-5-methylbenzylamino, reference compound]",18 µM,6.9 µM,> 100 µM,> 100 µM,0.9 µM,10 µM,,,
,,CSc1nc(NCc2ccc(F)cc2F)c2ncn(C3OC(CO)C(O)C3O)c2n1 (centres unmarked) [Compound 97],,,,,,,10^−6 mol · l^−1,107 (±8) %,
